Data on six compounds can be found in patent US20250302831A1, “THERAPY FOR ALCOHOL-RELATED LIVER DISEASE” (THE REGENTS OF THE UNIVERSITY OF CALIFORNIA, priority 2021, published 2025).

One data set addresses T1, hM4 (Homo sapiens, UniProt P08173).
T1 sequence (P08173 1-479): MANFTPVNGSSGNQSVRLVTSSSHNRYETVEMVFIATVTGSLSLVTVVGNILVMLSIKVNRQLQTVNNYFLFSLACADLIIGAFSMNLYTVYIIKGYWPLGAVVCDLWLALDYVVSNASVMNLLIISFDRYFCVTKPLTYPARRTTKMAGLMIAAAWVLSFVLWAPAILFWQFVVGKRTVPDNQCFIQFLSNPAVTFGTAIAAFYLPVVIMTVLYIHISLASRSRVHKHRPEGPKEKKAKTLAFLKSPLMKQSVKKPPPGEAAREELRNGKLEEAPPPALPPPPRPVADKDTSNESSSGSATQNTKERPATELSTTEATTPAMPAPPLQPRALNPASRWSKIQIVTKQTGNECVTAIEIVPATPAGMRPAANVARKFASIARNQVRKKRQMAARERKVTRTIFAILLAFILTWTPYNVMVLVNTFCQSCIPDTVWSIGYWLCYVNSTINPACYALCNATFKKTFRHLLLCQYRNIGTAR
As to conditions: read-out: hM4 (PAM) EC50; cited from earlier work.

The subject of data set [1] is WT C57BL/6 mice fed ethanol containing Lieber DeCarli diet. Description: mAChR4 PAM VU0467154 in chronic ethanol feeding (Lieber DeCarli diet) of WT mice. The data set is classed as in vivo, mouse. The source says:
Female mice (age, 8 weeks) were placed on Lieber DeCarli diet for 10 weeks as previously described (Llorente et al., 2017). In brief, the Lieber DeCarli diet comprises Micro Stabilized Rod Liq AC IRR 438 (LD101A; TestDiet), Maltodextrin IRR (9598; TestDiet) and 200-proof ethanol (Koptec). The caloric intake from ethanol was 0 on day 1, 10% of total calories on days 2 and 3, 20% on days 4 and 5, 30% from day 6 until the end of 6 weeks, and 36% until the end of the treatment. Control mice received an isocaloric amount of iso-maltose instead of ethanol.
To enhance GAP formation, WT C57BL/6 mice fed Lieber DeCarli diet containing ethanol or isocaloric iso-maltose for 10 weeks were treated for the last 29 days with the specific mAChR4 PAM VU0467154 (5 mg/kg), which was dissolved in the liquid diet. […]
Real-time quantitative PCR. RNA was extracted from mouse tissues and cDNA was generated 511 (Duan et al., 2019). Primer sequences for mouse genes were obtained from the NIH qPrimerDepot. Gene expression was determined with Sybr Green (Bio-Rad Laboratories) using ABI StepOnePlus real-time PCR system. The qPCR value was normalized to Tbp or 18S housekeeping genes. To quantify the total bacterial load in feces, the 515 qPCR value of 16S rRNA gene for each sample was multiplied by the total amount of DNA (μg) mg^−1 of feces. Published bacterial primer sequences were used for 16S rRNA gene (Maeda et al., 2003) (Table 3). […]
Flow cytometry. Isolation: Small intestine was harvested, and the epithelial cell layer was removed. Pieces were digested in media containing 1 mg/mL collagenase (Millipore Sigma), 0.1 U/mL dispase (Worthington Biochem) and 0.1 mg/mL DNase I (Millipore Sigma) at 37° C. at 150 rpm for 30 minutes. A 40% and 80% Percoll gradient was used to collect the lymphoid fractions at the interphase. Flow cytometry: LP-immune cells were pelleted and blocked with anti-mouse CD16/32 antibody (Thermo Fisher) for 15 minutes. Cells were divided to perform 3 different panels to analyze APCs, ILC3 and Tregs.
Stimulation and staining: To stimulate IL-23 secretion by LP-DCs, cells were re-stimulated in vitro with 100 ng/ml flagellin (Invivogen) for 2.5 hours in the presence of 0.7 μl/ml BD GolgiStop™ (BD Bioscience) to accumulate cytokines and/or proteins. The murine APC panel consisted of CD45.2 (V500, clone 104, BD), CD11c (FITC, clone N418, ThermoFisher), MHC Class II (I-A/I-E) (PE, clone M5/114. 15.2, ThermoFisher), CD11b (PerCP544 Cy5.5, clone M1/70, BD), CD103 (APC-R700, clone M290, BD), CX3CR1 (BV421, clone SA011F11, BioLegend), fixable viability stain (FVS) (575V, BD), IL-10 (BV711, clone JES5-16E3, BD) and IL-23 p19 (AF647, clone N71-1183).
Immunoblot analyses. To measure expression levels of mAChR4, GCs were isolated as described above. Immunoblot analysis was performed as described 33 using anti-AChR4 1:1000 (#AMR-004; Alomone labs) and anti-β-actin 1:5000 (Sigma-Aldrich) antibody as loading control. Protein from proximal small intestine was extracted and immunoblot analysis was performed using anti-Reg3g 1:500 (ab198216, Abcam), anti-Reg3b 1:500 (ABIN1870289, Antibodies online), and anti-IL-10 1:1000 (sc-365858; Santa Cruz Biotechnology) antibodies. Stain-free imaging technology using polyacrylamide gels (BioRad) containing a proprietary trihalo compound to make proteins fluorescent, was employed to calculate total protein. Immunoblots were visualized with a charged coupling device camera in a luminescent image analyzer (Gel-Doc; Bio-Rad). Immunoblots were analyzed by densitometry, using Image Lab version 6.0.1 software (Bio-Rad).

The conditions of data set [2]: Bubser 2014; Pancani 2015; Gould 2018; cited from earlier work.
The conditions of data set [3]: Bubser 2014; Pancani 2015; Gould 2018; cited from earlier work. The source holds these as a separate data set.
A further data set concerns rodent model. The note with it: systemic administration; Walker et al., 2020; cited from earlier work.
The test system of data set [4] is small intestinal organoids from WT mice. Description: IL-6 stimulation of small intestinal organoids (Chrm4 mRNA, mAChR4 immunoblot). The data set is classed as cell-based, mouse. As to conditions: IL-6 20 ng/ml in the presence of ethanol for 12 hours. How it is done:
Real-time quantitative PCR. RNA was extracted from mouse tissues and cDNA was generated 511 (Duan et al., 2019). Primer sequences for mouse genes were obtained from the NIH qPrimerDepot. Gene expression was determined with Sybr Green (Bio-Rad Laboratories) using ABI StepOnePlus real-time PCR system. The qPCR value was normalized to Tbp or 18S housekeeping genes. To quantify the total bacterial load in feces, the 515 qPCR value of 16S rRNA gene for each sample was multiplied by the total amount of DNA (μg) mg^−1 of feces. Published bacterial primer sequences were used for 16S rRNA gene (Maeda et al., 2003) (Table 3).
Small intestinal organoid isolation and culture. Small intestinal crypts were isolated from WT mice, cultured and stained as described 41 and treated with ethanol (10 and 50 mM) and IL-6 (20 ng/ml) (Biolegend) for 12 hours.
Immunoblot analyses. To measure expression levels of mAChR4, GCs were isolated as described above. Immunoblot analysis was performed as described 33 using anti-AChR4 1:1000 (#AMR-004; Alomone labs) and anti-β-actin 1:5000 (Sigma-Aldrich) antibody as loading control. […] Immunoblots were analyzed by densitometry, using Image Lab version 6.0.1 software (Bio-Rad).

The test system of a further data set is cultured GCs. Description: IL-6 treatment of cultured goblet cells. In kind it is cell-based.
The next data set addresses T2, mAChR4 (Homo sapiens, UniProt P08173).
T2 sequence (P08173 1-479): T1 sequence (P08173 1-479)
The note with it: target not printed with the value; cited from earlier work.

Setting [5] is: ethanol diet 10 weeks, 5 mg/kg in the diet during the last 29 days.
Setting [6] is: ethanol fed mice, anaerobic culture.
[7] abbreviates: ethanol fed mice, cells stimulated with flagellin 100 ng/ml 2.5 hours.
[8] abbreviates: ethanol fed mice, proximal small intestine.

With `Cc1nnc2sc(C(=O)NC3CN(c4cccnc4)C3)c(N)c2c1C` [PT-1148], at hM4, the 50% effective concentration (EC50) is 3 nM.

Consider `CCOC(=O)N1CCCC(N2CCC(c3cccnc3OC)CC2)CC1` (centres unmarked) [PT-6950], for which the EC50 on hM4 is 20 nM.

As to `Cc1nnc2sc(C(=O)NCc3ccc(S(=O)(=O)C(F)(F)F)cc3)c(N)c2c1C` [VU0467154], in data set [1] (setting [5]), the “ethanol-induced liver inflammation (hepatic Cxcl1 mRNA)” value is given as “protected”; the “ethanol-induced liver injury (plasma ALT, H&E)” value was “protected”; the “ethanol-induced steatosis (ORO-stained liver sections)” value is given as “protected”. Further, in data set [1] (ethanol diet 10 weeks, 5 mg/kg in the diet during the last 29 days, small intestine), the “ethanol-induced GAP closure (number of GAPs per villus)” value is “reduced”. Further, in data set [1] (setting [6]), the “ethanol mediated bacterial translocation to MLN (CFU)” value was “prevented” and the “ethanol mediated bacterial translocation to liver (CFU)” value was “prevented”. In addition, in data set [1] (setting [7]), the “Frequencies of CD103+ CD11b+ DC populations” value is listed as “increased” and the “Frequencies of LP-APCs (CD11c+, MHCII+)” value is listed as “increased”. Also, in data set [1] (setting [8]), the “intestinal IL-10 expression (immunoblot)” value is reported as “induced”, the “intestinal Reg3b expression (immunoblot)” value is “induced” and the “intestinal Reg3g expression (immunoblot)” value is “induced”. In addition, in data set [2], the “gastrointestinal motility side effects” value was “no gastrointestinal motility side effects”. In data set [3], the oral bioavailability entry was “excellent”. The “ethanol seeking and consumption” value in the data set on rodent model is “reduced”.

As for “IL-6: cytokine (Biolegend) used at 20 ng/ml on organoids”, the “mAChR4 expression (Chrm4 mRNA, mAChR4 protein)” value in data set [4] is “induced”. The mAChR4 expression result in the data set on cultured GCs is on record as “induced”.

As to `Cc1cc2c(nc1N1CCC(Oc3ccc4c(c3)COC4)CC1)CNC2=O` [MK-4710], the IC50 at mAChR4 is 17 nM.

In the case of `Cc1cc(C)c2c(N)c(C(=O)NC3CN(c4cccnc4)C3)sc2n1` [PT-3763], the half-maximal effective concentration (EC50) at hM4 is 45 nM.
